Laboratory results reported in publication PMC12147183, “Lacritin cleavage-potentiated targeting of iron - respiratory reciprocity promotes bacterial death” (The Journal of Biological Chemistry, 2025).
≈ marks a conversion by molar mass, not a printed value. Peptide text beside a SMILES is read from it.

Experiments:
[1] = tested on: His-tagged FeoB; experiment: His-tagged FeoB binding to peptide columns; set-up: species or system P. aeruginosa PAO1; conditions: step gradient 0.3, 0.5, 1.0 M KCl, 0.05% dodecyl-β-D-maltopyranoside, 4 °C, anti-His Western blot, n = 3
Procedure: We used the pFeoB plasmid ([6]) with feoB insert from P. aeruginosa PAO1 in pET41-a(+) with a C-terminal 8-His tag and kanamycin-resistant cassette, and E. coli EcCD00397460 plasmid (DNASU Plasmid Repository, Tempe Arizona) with potH insert in PCDF Bravo with C-terminal 10-His tag and streptomycin-resistant cassette. Plasmids of each were generated using standard procedures. His-tagged FeoB or PotH proteins in the supernatant were captured on Ni-Sepharose for 4 h with end-over-end rotation at 4 °C, washed with 10 mM HEPES potassium salt, 10% glycerol, 0.5 M NaCl, 10 mM MgSO4, 10 mM imidazole, and 0.05% dodecyl-β-D-maltopyranoside and eluted with the same wash buffer but containing 0.2 M NaCl and 0.5 M imidazole. Eluted FeoB and PotH were concentrated into 10 mM HEPES potassium salt, 10% glycerol, 10 mM MgSO4, 0.05% dodecyl-β-D-maltopyranoside and 0.15 M NaCl respectively on Amicon Ultra-0.5 Centrifugal UFC505024, UFC503024 and UFC900596 filter units.
N-104 and C-95 columns (1 ml each) equilibrated in 10 mM HEPES potassium salt, 10% glycerol, 10 mM MgSO4, 0.05% dodecyl-β-D-maltopyranoside, and 0.15 M NaCl were individually mixed at 4 °C overnight with purified FeoB and PotH. […]

[2] = tested on: wild-type E. coli K-12; experiment: Alamar Blue viability assay of wild-type E. coli K-12; type: cell-based, Escherichia coli; conditions: 100 μM, wild-type E. coli K-12 10^6 cfu/ml, 37 °C, hourly, n = 3
[3] = tested on: PA14 fed to C. elegans; type: in vivo, Caenorhabditis elegans
Procedure: L1 stage C. elegans worms on Nematode Growth Medium (NGM) plates with E. coli OP50 as a food source were cultivated at room temperature in a humidified chamber until maturation into sterile young adults ([84]), carefully washed off with M9 minimal salts and then collected by pelleting (1200g, 2 min). […] After 3 days, bacteria and debris were removed leaving 50 μl per well of worms to which 50 μl of 6 μM SYTOX Orange was added in M9 minimal salts. The next day, images were captured using both transmission and epifluorescence (excitation/detection = 535/610 nm) on an AMG EVOS FL AMF-4301 fluorescence microscope (Thermo Fisher Scientific).

[4] = tested on: P. aeruginosa PA14
Procedure: After overnight incubation at 37 °C, plates were analyzed on a ChemiDoc XRS (Bio-Rad).

`C[C@H](NC(=O)CNC(=O)[C@@H](NC(=O)[C@H](CO)NC(=O)[C@H](CC(=O)O)NC(=O)[C@H](CO)NC(=O)[C@H](CO)NC(=O)[C@H](C)NC(=O)[C@H](CC(=O)O)NC(=O)[C@@H](N)CCC(=O)O)[C@@H](C)O)C(=O)N[C@@H](CC(=O)O)C(=O)N1CCC[C@H]1C(=O)N[C@@H](C)C(=O)N[C@@H](CCC(N)=O)C(=O)N[C@@H](CCC(=O)O)C(=O)N[C@@H](C)C(=O)NCC(=O)N[C@H](C(=O)N[C@@H](CO)C(=O)N[C@@H](CCCCN)C(=O)N1CCC[C@H]1C(=O)N[C@@H](CC(N)=O)C(=O)N[C@@H](CCC(=O)O)C(=O)N[C@@H](CCC(=O)O)C(N)=O)[C@@H](C)O` [C-95, reference compound] (H-EDASSDSTGADPAQEAGTSKPNEE-NH2) was tested, and the “KCl elution of His-FeoB from immobilized peptide” value [1] was “lacked”.
With `CC(=O)N[C@@H](C)C(=O)N[C@@H](CCC(N)=O)C(=O)N[C@@H](CCCCN)C(=O)N[C@@H](CC(C)C)C(=O)N[C@@H](CC(C)C)C(=O)N[C@@H](CCCCN)C(=O)N[C@@H](CCCCN)C(=O)N[C@@H](Cc1ccccc1)C(=O)N[C@@H](CO)C(=O)N[C@@H](CC(C)C)C(=O)N[C@@H](CC(C)C)C(=O)N[C@@H](CCCCN)C(=O)N1CCC[C@H]1C(=O)N[C@@H](Cc1c[nH]c2ccccc12)C(=O)N[C@@H](C)C(=O)O` [N-104] (Ac-AQKLLKKFSLLKPWA-OH) the “bacterial metabolic activity (Alamar Blue)” value [2] was “inhibitory”, the “KCl elution of His-FeoB from immobilized peptide” value [1] was “eluted with 0.5 and 1 M but not 0.3 M KCl” and the “N-104 resistance of PA14 ΔyaiW in C. elegans survival assay” value ([3]; 0 or 50 μM N-104, 5 h, 10^7 cfu/ml, n = 3) was “partially resistant”. The “viability of C. elegans fed N-104 alone” value ([3]; 100 μM N-104 without PA14, 3 days) was “did not affect viability”, the “survival of C. elegans fed peptide-treated PA14” value ([3]; PA14 10^7 cfu/ml treated 5 h with 100 μM peptide (legend; method says 50 μM), fed to 50 worms for 3 days, SYTOX Orange, n = 3) was “fully survived” and the “N-104 resistance of PA14 ΔyaiW in CFU assay” value ([4]; 0, 2 or 5 μM N-104, 10^6 cfu/ml, n = 3) was “partially resistant”. The “bactericidal efficacy versus osmolarity” value ([4]; 0 to 400 μM N-104 in 30 or 300 mOsm/l phosphate buffer, 8 h, n = 3) was “diminishes as osmolarity increases” and the “minimum inhibitory concentration (MIC)” value ([4]; PA14, 8 h) was 2 µM (≈ 3.63 µg/mL).
